Measurements taken from US9115092B2, “Substituted quinazoline and pyrido-pyrimidine derivatives” (Asana Biosciences, LLC, priority 2010, dated 2015).

Legend:
[1] = tested on: pS6RP(S235/236), PC3 cells; assay: In-cell Western assay, pS6RP(S235/236) in PC3 cells; format: cell-based, human
Outline: (§1)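 Overnight-seeded PC3 cells were treated 2 h with serially diluted compound, then fixed and immunostained with phospho-specific primary antibodies and Eu-labelled secondary. Time-resolved Eu signal read at 615 nm (ex 340 nm), normalised by Hoechst 33258 staining (ex 355/em 460 nm); IC50 from sigmoidal dose-response fit.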

[2] = tested on: pAKT(5473) (phosphorylated at serine 473), PC3 cells; assay: In-cell Western assay, pAKT(5473) in PC3 cells; format: cell-based; conditions: Homo sapiens, PC-3, In-cell Western, read-out: pAkt-S473
Outline: as §1

PI3Kα mutation E545K = PI3Kα mutation E545K (Homo sapiens, UniProt P42336, E545K); assay: PI3 Kinase TR-FRET assay, PI3Kα mutation E545K; format: biochemical; conditions: read-out: inhibition of PI3Kα mutation E545K, IC50
Chain of PI3Kα mutation E545K (P42336 whole entry E545K, the tested form may be a part, canonical isoform): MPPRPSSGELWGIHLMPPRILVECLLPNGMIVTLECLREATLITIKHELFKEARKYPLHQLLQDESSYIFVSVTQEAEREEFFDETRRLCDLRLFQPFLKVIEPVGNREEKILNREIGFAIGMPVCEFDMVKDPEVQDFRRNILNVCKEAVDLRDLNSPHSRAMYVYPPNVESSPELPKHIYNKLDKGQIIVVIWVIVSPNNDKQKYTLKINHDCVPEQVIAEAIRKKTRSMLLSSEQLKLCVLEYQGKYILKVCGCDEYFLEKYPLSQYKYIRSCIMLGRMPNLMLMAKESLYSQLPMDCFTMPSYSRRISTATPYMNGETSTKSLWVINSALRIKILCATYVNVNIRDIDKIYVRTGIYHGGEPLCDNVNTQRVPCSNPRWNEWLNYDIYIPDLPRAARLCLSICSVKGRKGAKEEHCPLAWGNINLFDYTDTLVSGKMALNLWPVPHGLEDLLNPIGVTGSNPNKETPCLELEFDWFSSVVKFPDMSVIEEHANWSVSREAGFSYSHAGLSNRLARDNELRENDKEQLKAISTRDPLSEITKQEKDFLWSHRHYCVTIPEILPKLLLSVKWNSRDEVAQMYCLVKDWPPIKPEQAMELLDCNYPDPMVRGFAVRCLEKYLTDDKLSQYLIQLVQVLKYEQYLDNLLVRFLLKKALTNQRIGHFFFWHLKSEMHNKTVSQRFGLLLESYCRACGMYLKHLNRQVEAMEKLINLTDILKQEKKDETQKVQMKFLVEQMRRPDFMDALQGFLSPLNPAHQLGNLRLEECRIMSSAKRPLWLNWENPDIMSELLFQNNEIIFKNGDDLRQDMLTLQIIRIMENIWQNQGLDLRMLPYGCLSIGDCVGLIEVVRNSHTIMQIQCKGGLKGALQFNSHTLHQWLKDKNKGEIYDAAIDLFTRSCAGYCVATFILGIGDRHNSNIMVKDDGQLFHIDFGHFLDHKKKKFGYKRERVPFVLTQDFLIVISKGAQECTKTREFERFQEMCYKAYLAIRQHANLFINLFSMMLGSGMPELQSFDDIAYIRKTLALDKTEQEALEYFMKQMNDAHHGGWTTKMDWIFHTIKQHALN
Chain of PI3Kα mutation E545K (P27986 whole entry partner, the tested form may be a part, canonical isoform): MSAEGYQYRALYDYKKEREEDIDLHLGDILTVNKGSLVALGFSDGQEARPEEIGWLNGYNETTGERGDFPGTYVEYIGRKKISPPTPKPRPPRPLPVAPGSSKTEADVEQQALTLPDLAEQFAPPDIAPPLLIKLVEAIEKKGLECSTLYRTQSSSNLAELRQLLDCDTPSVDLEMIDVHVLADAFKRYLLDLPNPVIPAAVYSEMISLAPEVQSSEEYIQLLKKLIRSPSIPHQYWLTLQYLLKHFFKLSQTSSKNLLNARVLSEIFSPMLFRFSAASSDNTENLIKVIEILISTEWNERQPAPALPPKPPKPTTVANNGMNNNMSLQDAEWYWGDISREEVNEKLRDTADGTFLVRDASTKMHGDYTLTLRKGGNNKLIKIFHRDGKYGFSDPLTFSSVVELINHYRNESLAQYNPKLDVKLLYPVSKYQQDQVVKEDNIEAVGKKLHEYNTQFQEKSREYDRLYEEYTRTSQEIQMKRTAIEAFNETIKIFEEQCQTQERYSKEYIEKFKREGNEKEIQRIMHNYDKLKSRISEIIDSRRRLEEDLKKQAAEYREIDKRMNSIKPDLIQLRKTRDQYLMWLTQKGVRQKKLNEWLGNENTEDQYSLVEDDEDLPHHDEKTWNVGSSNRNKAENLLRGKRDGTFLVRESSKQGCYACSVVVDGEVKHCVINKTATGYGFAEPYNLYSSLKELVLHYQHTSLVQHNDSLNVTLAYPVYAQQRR
Method: (§2) The ability of compounds of the invention to inhibit PI3K activity was determined in a homogeneous TR-FRET assay using a PI3K assay kit (Millipore, USA; cat #33-016) according to manufacturer's instructions. PI3-Kinases (isoforms α, β, γ and δ) catalyze the phosphorylation of phosphatidylinositol, PIP2 to PIP3 in the presence of ATP and Mg^2+. The PIP3 product is detected by displacement of biotin-PIP3 from an energy transfer complex consisting of Europium labeled anti-GST monoclonal antibody, a GST-tagged PH domain, biotinylated PIP3 and Streptavidin-APC. Excitation of Europium in the complex results in an energy transfer to the APC and a fluorescence emission at 665 nm. The PIP3 product displaces biotin-PIP3 from the complex resulting in a loss of energy transfer and thus a decrease in signal.
(§3) To test for the ability of compounds to inhibit the activity of PI3Kα (wild-type), exemplary compounds of formula (I) were dissolved in DMSO and directly distributed into 384-well plates at a volume of 0.5 μL. 14.5 μL of P110/P85α/PIP2 mixture in buffer (obtained from the Millipore kit) containing MgCl2 (40 mM) and DTT (5 mM) was added to compound wells and incubated for 60 min at room temperature. P110/P85α was expressed in SF9 insect cells and purified nickel column extraction. Five ng of wild-type P110/P85α was used in the assay. The kinase reaction was started by the addition of ATP. The assay concentrations of both PIP2 and ATP were 10 μM. The reaction mixture was incubated for 30 min at room temperature and was terminated by the addition of stop mix and detection mix. Fluorescence was measured at 615 and 665 nm upon excitation at 340 nm in a Victor™ V5 fluorometer (Perkin Elmer, USA). The fluorescence emission ratio at 665 to 615 nm, proportional to the kinase activity, was plotted against the compound concentration to generate dose-response curves and IC50 values were determined using GraphPad Prism® 5 software.
(§4) The activity of PI3Kα mutations H1047R and E545K were assayed in a similar manner to the assay protocol described above for PI3Kα (wild type). […]

PI3Kα mutation H1047R = PI3Kα mutation H1047R (Homo sapiens, UniProt P42336, H1047R); assay: PI3 Kinase TR-FRET assay, PI3Kα mutation H1047R; format: biochemical; conditions: read-out: inhibition of PI3Kα mutation H1047R, IC50
Chain of PI3Kα mutation H1047R (P42336 whole entry H1047R): as the sequence (P42336 whole entry E545K, the tested form may be a part, canonical isoform) above, with K545E, H1047R counted along it
Chain of PI3Kα mutation H1047R (P27986 whole entry partner): as the sequence (P27986 whole entry partner, the tested form may be a part, canonical isoform) above
Method: as §2, §3, §4

[3] = Homo sapiens, PC-3, In-cell Western

Row | IC50 [1, 3] | IC50 [2] | IC50 ([1]; In-cell Western) | IC50 (PI3Kα mutation E545K) | IC50 (PI3Kα mutation H1047R) | Compound
1 | 201 to 10000 nM | 501 to 5000 nM | – | < 500 nM | < 500 nM | CN(C)C(=O)c1ccc(NC(=O)Nc2ccc(-c3nc(N4CCOCC4)c4ccc(-c5cncnc5)cc4n3)cc2)c(F)c1 [Example 133, 3-fluoro-N,N-dimethyl-4-(3-(4-(4-morpholino-7-(pyrimidin-5-yl)quinazolin-2-yl)phenyl)ureido)-benzamide]
2 | – | < 100 nM | – | < 500 nM | < 500 nM | CN(C)C(=O)c1ccc(NC(=O)Nc2ccc(-c3nc(N4CCOCC4)c4ccc(-c5cccnc5F)cc4n3)cc2)c(F)c1 [Example 146, 3-fluoro-4-(3-(4-(7-(2-fluoropyridin-3-yl)-4-morpholino-quinazolin-2-yl)phenyl)ureido)-N,N-dimethyl-benzamide]
3 | – | 501 to 5000 nM | – | < 500 nM | < 500 nM | CN(C)C(=O)c1ccc(NC(=O)Nc2ccc(-c3nc(N4CCOCC4)c4ccc(-c5cccnc5)cc4n3)cc2)c(F)c1 [Example 152, 3-fluoro-N,N-dimethyl-4-(3-(4-(4-morpholino-7-(pyridin-3-yl)quinazolin-2-yl)phenyl)ureido)-benzamide]

The next lines start with the compound.

Row | Compound | IC50 [1, 3] | IC50 [2] | IC50 ([1]; In-cell Western) | IC50 (PI3Kα mutation E545K) | IC50 (PI3Kα mutation H1047R)
4 | CN(C)C(=O)c1ccc(NC(=O)Nc2ccc(-c3nc(N4CCOCC4)c4ccc(-c5cncnc5)cc4n3)cc2)cc1 [Example 1, N,N-Dimethyl-4-(3-{4-[4-morpholin-4-yl-7-pyrimidin-5-yl-quinazolin-2-yl)-phenyl]-ureido}-benzamide] | < 100 nM | 100 to 500 nM | – | – | –
5 | Cc1ccc(-c2ccc3c(N4CCOCC4)nc(-c4ccc(NC(=O)Nc5ccc(C(=O)N(C)C)cc5)cc4)nc3c2)o1 [Example 2, N,N-Dimethyl-4-(3-{4-[7-(5-methyl-furan-2-yl)-4-morpholin-4-yl-quinazolin-2-yl]-phenyl}-ureido)-benzamide] | 100 to 500 nM | 100 to 500 nM | – | – | –
6 | CN(C)C(=O)c1ccc(NC(=O)Nc2ccc(-c3nc(N4CCOCC4)c4ccc(-c5ccco5)cc4n3)cc2)cc1 [Example 51, 4-{3-[4-(7-furan-2-yl-4-morpholin-4-yl-quinazolin-2-yl)-phenyl]-ureido}-N,N-dimethyl-benzamide] | – | – | 501 to 5000 nM | – | –
